Test results from ChEMBL document CHEMBL4177685, “Ionic liquid mediated stereoselective synthesis of alanine linked hybrid quinazoline-4(3H)-one derivatives perturbing the malarial reductase activity in folate pathway” (Bioorg Med Chem, 2017).
Values after ≈ are worked out from the molar mass of the structure shown.

Assays:
Plasmodium falciparum = assay: Antimalarial activity against Plasmodium falciparum in infected in human RBC; type: functional, organism-based; settings: Erythrocyte
Dihydrofolate reductase = molecular target: T1, Dihydrofolate reductase (Bos taurus, UniProt P00376); assay: Inhibition of bovine liver DHFR using FH2 as substrate preincubated for 2 mins followed by substrate addition
T1 sequence (P00376 whole entry): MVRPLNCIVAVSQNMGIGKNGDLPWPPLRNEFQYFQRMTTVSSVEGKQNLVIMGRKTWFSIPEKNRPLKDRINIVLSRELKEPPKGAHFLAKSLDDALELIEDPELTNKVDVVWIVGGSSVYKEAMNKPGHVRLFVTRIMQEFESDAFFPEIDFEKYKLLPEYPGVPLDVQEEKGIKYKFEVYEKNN

Vero = assay: Cytotoxicity against African green monkey Vero cells up to 15 ug/ml after 72 hrs by MTT assay; type: cell-based; settings: chlorocebus sabaeus
bovine liver DHFR = assay: Selectivity index, ratio of IC50 for African green monkey Vero cells to IC50 for bovine liver DHFR; type: toxicity; settings: read-out: Ratio IC50

Row | IC50 (Plasmodium falciparum) [µg/mL] | IC50 (Dihydrofolate reductase) [nM] | SMILES | Activity (Vero) | selectivity ratio (bovine liver DHFR)
1 | 0.78 (≈ 1.5 µM) |  | COc1ccccc1/C=N/n1c(C(C)NS(=O)(=O)c2ccc(NC(C)=O)cc2)nc2ccccc2c1=O (stereo not given) |  | 
2 | 1.01 (≈ 1.93 µM) |  | CC(=O)Nc1ccc(S(=O)(=O)NC(C)c2nc3ccccc3c(=O)n2/N=C/c2cccc(Cl)c2)cc1 (stereo not given) |  | 
3 | 1.1 (≈ 2.25 µM) |  | CC(=O)Nc1ccc(S(=O)(=O)NC(C)c2nc3ccccc3c(=O)n2/N=C/c2ccccc2)cc1 (stereo not given) |  | 
4 | 1.05 (≈ 2.01 µM) |  | CC(=O)Nc1ccc(S(=O)(=O)NC(C)c2nc3ccccc3c(=O)n2/N=C/c2ccccc2Cl)cc1 (stereo not given) |  | 
5 | 0.78 (≈ 1.37 µM) |  | CC(=O)Nc1ccc(S(=O)(=O)NC(C)c2nc3ccccc3c(=O)n2/N=C/c2ccccc2Br)cc1 (stereo not given) |  | 
6 | 0.72 (≈ 1.37 µM) |  | CC(=O)Nc1ccc(S(=O)(=O)NC(C)c2nc3ccccc3c(=O)n2/N=C/c2ccc(Cl)cc2)cc1 (stereo not given) |  | 
7 | 1.05 (≈ 2.08 µM) |  | CC(=O)Nc1ccc(S(=O)(=O)NC(C)c2nc3ccccc3c(=O)n2/N=C/c2ccccc2O)cc1 (stereo not given) |  | 
8 | 1.28 (≈ 2.54 µM) |  | CC(=O)Nc1ccc(S(=O)(=O)NC(C)c2nc3ccccc3c(=O)n2/N=C/c2ccccc2C)cc1 (stereo not given) |  | 
9 | 1.02 (≈ 1.8 µM) |  | CC(=O)Nc1ccc(S(=O)(=O)NC(C)c2nc3ccccc3c(=O)n2/N=C/c2cccc(Br)c2)cc1 (stereo not given) |  | 
10 | 0.7 (≈ 1.31 µM) |  | CC(=O)Nc1ccc(S(=O)(=O)NC(C)c2nc3ccccc3c(=O)n2/N=C/c2ccccc2[N+](=O)[O-])cc1 (stereo not given) |  | 
11 | 0.092 (≈ 0.181 µM) | 53.2 | CC(=O)Nc1ccc(S(=O)(=O)NC(C)c2nc3ccccc3c(=O)n2/N=C/c2cccc(F)c2)cc1 (stereo not given) | Non-Toxic | 556
12 | 0.7 (≈ 1.38 µM) |  | CC(=O)Nc1ccc(S(=O)(=O)NC(C)c2nc3ccccc3c(=O)n2/N=C/c2ccccc2F)cc1 (stereo not given) |  | 

Continued, compound first:

Row | SMILES | IC50 (Plasmodium falciparum) [µg/mL] | IC50 (Dihydrofolate reductase) [nM] | Activity (Vero) | selectivity ratio (bovine liver DHFR)
13 | CC(=O)Nc1ccc(S(=O)(=O)NC(C)c2nc3ccccc3c(=O)n2/N=C/c2ccc(C)cc2)cc1 (stereo not given) | 0.068 (≈ 0.135 µM) | 165 | Non-Toxic | 181
14 | CC(=O)Nc1ccc(S(=O)(=O)NC(C)c2nc3ccccc3c(=O)n2/N=C/c2cccc(C)c2)cc1 (stereo not given) | 0.72 (≈ 1.43 µM) |  |  | 
15 | COc1cccc(/C=N/n2c(C(C)NS(=O)(=O)c3ccc(NC(C)=O)cc3)nc3ccccc3c2=O)c1 (stereo not given) | 1.02 (≈ 1.97 µM) |  |  | 
16 | CC(=O)Nc1ccc(S(=O)(=O)NC(C)c2nc3ccccc3c(=O)n2/N=C/c2cccc(O)c2)cc1 (stereo not given) | 1.01 (≈ 2 µM) |  |  | 
17 | CC(=O)Nc1ccc(S(=O)(=O)NC(C)c2nc3ccccc3c(=O)n2/N=C/c2ccc(O)cc2)cc1 (stereo not given) | 0.72 (≈ 1.42 µM) |  |  | 
18 | CC(=O)Nc1ccc(S(=O)(=O)NC(C)c2nc3ccccc3c(=O)n2/N=C/c2ccc([N+](=O)[O-])cc2)cc1 (stereo not given) | 0.084 (≈ 0.157 µM) | 82.3 | Non-Toxic | 341
19 | CC(=O)Nc1ccc(S(=O)(=O)NC(C)c2nc3ccccc3c(=O)n2/N=C/c2ccc(Br)cc2)cc1 (stereo not given) | 0.67 (≈ 1.18 µM) |  |  | 
20 | CC(=O)Nc1ccc(S(=O)(=O)NC(C)c2nc3ccccc3c(=O)n2/N=C/c2ccc(F)cc2)cc1 (stereo not given) | 0.084 (≈ 0.166 µM) | 67 | Non-Toxic | 441
21 | CC(=O)Nc1ccc(S(=O)(=O)NC(C)c2nc3ccccc3c(=O)n2/N=C/c2cccc([N+](=O)[O-])c2)cc1 (stereo not given) | 0.092 (≈ 0.172 µM) | 99.1 | Non-Toxic | 283
22 | COc1ccc(/C=N/n2c(C(C)NS(=O)(=O)c3ccc(NC(C)=O)cc3)nc3ccccc3c2=O)cc1 (stereo not given) | 0.67 (≈ 1.29 µM) |  |  | 
23 | CCc1nc(N)nc(N)c1-c1ccc(Cl)cc1 [PYRIMETHAMINE] | 0.25 (≈ 1.01 µM) |  |  | 
24 | C=C[C@H]1CN2CC[C@H]1C[C@H]2[C@H](O)c1ccnc2ccc(OC)cc12 [QUININE] | 0.268 (≈ 0.826 µM) |  |  | 
25 | COc1cc(Cc2cnc(N)nc2N)cc(OC)c1OC [TRIMETHOPRIM] | 0.38 (≈ 1.31 µM) |  |  | 
